ChEMBL document CHEMBL1135123, “Discovery of L-791,943: a potent, selective, non emetic and orally active phosphodiesterase-4 inhibitor” (Bioorg Med Chem Lett, 2002)
pIC50: −log10 of the molar value.

Columns and labels:
[1] = target: T1, 3',5'-cyclic-AMP phosphodiesterase 4A (Homo sapiens, UniProt P27815); assay: Inhibitory concentration of compound against LPS- induced TNF-alpha production in whole human blood assay; format: functional, tissue-based
Target sequence in this assay (P27815 whole entry, the tested form may be a part, canonical isoform): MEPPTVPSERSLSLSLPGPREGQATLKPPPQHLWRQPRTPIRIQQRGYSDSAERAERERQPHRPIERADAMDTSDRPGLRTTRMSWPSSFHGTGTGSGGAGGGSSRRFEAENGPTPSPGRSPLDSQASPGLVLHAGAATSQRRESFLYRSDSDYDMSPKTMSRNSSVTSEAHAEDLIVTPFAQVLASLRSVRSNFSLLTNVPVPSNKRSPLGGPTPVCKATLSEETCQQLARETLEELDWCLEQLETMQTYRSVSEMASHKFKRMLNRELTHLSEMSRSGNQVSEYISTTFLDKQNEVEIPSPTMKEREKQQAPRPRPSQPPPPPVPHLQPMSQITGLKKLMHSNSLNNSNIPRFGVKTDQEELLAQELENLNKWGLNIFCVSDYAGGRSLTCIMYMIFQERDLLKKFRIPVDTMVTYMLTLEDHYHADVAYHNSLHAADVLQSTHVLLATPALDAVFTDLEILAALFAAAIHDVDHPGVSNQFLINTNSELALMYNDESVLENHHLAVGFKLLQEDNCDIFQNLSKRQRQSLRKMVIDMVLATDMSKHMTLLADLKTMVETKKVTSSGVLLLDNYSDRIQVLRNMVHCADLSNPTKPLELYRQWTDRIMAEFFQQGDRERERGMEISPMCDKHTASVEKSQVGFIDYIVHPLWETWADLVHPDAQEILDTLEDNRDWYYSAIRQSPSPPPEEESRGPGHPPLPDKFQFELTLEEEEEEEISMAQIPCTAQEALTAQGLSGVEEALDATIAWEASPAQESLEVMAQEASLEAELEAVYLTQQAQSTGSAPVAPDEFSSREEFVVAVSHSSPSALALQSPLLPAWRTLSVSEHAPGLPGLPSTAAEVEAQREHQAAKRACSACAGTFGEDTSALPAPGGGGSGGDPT

[2] = target: T1, 3',5'-cyclic-AMP phosphodiesterase 4A; assay: Inhibitory concentration against human PDE4A isoform using a construct representing the common region of spliced variants expressed as GST-fusion protein in Sf9 cells
Target sequence in this assay (P27815 whole entry, looked up, stated change not applied, the tested form may be a part, canonical isoform): as the sequence (P27815 whole entry, the tested form may be a part, canonical isoform) above

Mustela putorius furo = organism: Mustela putorius furo; assay: Emetic effect in ferrets; format: functional
[3] = Half life of compound was determined in rat; format: ADME, organism-based; conditions: in vivo
[4] = Half life of compound was determined in squirrel monkey; format: ADME; conditions: in vivo
[5] = Ascaris-induced bronchoconstriction in anesthetized squirrel monkey pretreated with 5 mg/kg intravenously for 30 min; format: functional; conditions: route intravenous
Ovis aries [6] = assay: Ascaris-induced late phase bronchoconstriction in conscious sheep administered intravenously at 2 mg/kg; format: functional; conditions: route intravenous
Cavia porcellus = assay: Ovalbumin induced bronchoconstriction in conscious guinea pig pretreated with 1 mg/kg intraperitoneal dose for 4 hr; format: functional
Ovis aries [7] = assay: Ascaris-induced early phase bronchoconstriction in conscious sheep administered intravenously at 2 mg/kg; format: functional; conditions: route intravenous
[8] = Ascaris-induced bronchoconstriction in anesthetized squirrel monkey pretreated with 3 mg/kg peroral dose for 4 hr; format: functional; conditions: route oral
[9] = Half-life period was determined; format: ADME
[10] = Bioavailability; format: ADME, organism-based; conditions: eutheria, in vivo

Row | Structure (SMILES) | pIC50 [1] | pIC50 [2] | also measured
1 | CC(O)c1ccc(C(Cc2cc[n+]([O-])cc2)c2ccc(OC(F)F)c(OC(F)F)c2)cc1 (stereo not given) | 6.29 | 7.35 | –
2 | [O-][n+]1ccc(CC(c2ccc(COc3ccc(F)cc3)cc2)c2ccc(OC(F)F)c(OC(F)F)c2)cc1 (stereo not given) | 5.72 | 9.30 | –
3 | [O-][n+]1ccc(CC(c2ccc(C3(O)CC3)cc2)c2ccc(OC(F)F)c(OC(F)F)c2)cc1 (stereo not given) | 5.77 | 7.80 | –
4 | O=C(O)Cc1ccc(C(Cc2cc[n+]([O-])cc2)c2ccc(OC(F)F)c(OC(F)F)c2)cc1 (stereo not given) | 4.24 | 7.28 | –
5 | CN(C)C(=O)c1ccc(C(Cc2cc[n+]([O-])cc2)c2ccc(OC(F)F)c(OC(F)F)c2)cc1 (stereo not given) | 6.00 | 8.07 | –
6 | CCNC(=O)OCc1ccc(C(Cc2cc[n+]([O-])cc2)c2ccc(OC(F)F)c(OC(F)F)c2)cc1 (stereo not given) | 6.39 | 8.34 | –
7 | FC(F)Oc1ccc(C(Cc2ccncc2)c2ccc(Cl)cc2)cc1OC(F)F (stereo not given) | 5.35 | 7.96 | –
8 | CC(C)(C(=O)O)c1cccc(-c2ccc(C(Cc3cc[n+]([O-])cc3)c3ccc(OC(F)F)c(OC(F)F)c3)cc2)c1 (stereo not given) | 5.19 | 8.66 | –
9 | COc1ccc([C@H](Cc2ccncc2)c2ccccc2)cc1OC1CCCC1 [CDP840] | 4.80 | 8.37 | Dose (Mustela putorius furo): 30 mg/kg; half-life [3]: < 0.5 h; half-life [4]: < 1 h; Efficacy [5]: 64%
10 | [O-][n+]1ccc(CC(c2ccc(C(O)(C(F)(F)F)C(F)(F)F)cc2)c2ccc(OC(F)F)c(OC(F)F)c2)cc1 (stereo not given) | 6.17 | 8.38 | Efficacy (Ovis aries [6]): 95%; Efficacy (Cavia porcellus): 58%; Efficacy (Ovis aries [7]): 85%; Efficacy [8]: 96%; Dose (Mustela putorius furo): >3 mg/kg; half-life [3]: > 24 h; half-life [4]: 48 h
11 | COc1ccc(C(Cc2ccncc2)c2ccc(Cl)cc2)cc1OC1CCCC1 (stereo not given) | 4.92 | 8.55 | –
12 | O=C(O)c1ccc(C(Cc2cc[n+]([O-])cc2)c2ccc(OC(F)F)c(OC(F)F)c2)cc1 (stereo not given) | 4.11 | 7.62 | –
13 | [O-][n+]1ccc(CC(c2ccc(CO)cc2)c2ccc(OC(F)F)c(OC(F)F)c2)cc1 (stereo not given) | 6.33 | 7.36 | –
14 | [O-][n+]1ccc(CC(c2ccc(C3(O)CCC3)cc2)c2ccc(OC(F)F)c(OC(F)F)c2)cc1 (stereo not given) | 6.42 | 8.12 | half-life [9]: 2 h; bioavailability [10]: 100%
15 | Clc1ccc(C(Cc2ccncc2)c2ccc3c(c2)OCCO3)cc1 (stereo not given) | – | 6.11 | –
16 | COc1ccc(C(Cc2ccncc2)c2ccc(Cl)cc2)c(F)c1OC1CCCC1 (stereo not given) | 4.01 | 6.96 | –
17 | Cc1ccc(C(=O)c2ccc(C(Cc3cc[n+]([O-])cc3)c3ccc(OC(F)F)c(OC(F)F)c3)cc2)nc1 (stereo not given) | 6.05 | 8.14 | –
18 | Clc1ccc(C(Cc2ccncc2)c2ccc3c(c2)OCO3)cc1 (stereo not given) | – | < 6.00 | –
19 | Cc1ccccc1C(=O)NS(=O)(=O)c1ccc(C(Cc2cc[n+]([O-])cc2)c2ccc(OC(F)F)c(OC(F)F)c2)cc1 (stereo not given) | 4.12 | 8.51 | –
20 | CC(C)(O)c1ccc(C(Cc2cc[n+]([O-])cc2)c2ccc(OC(F)F)c(OC(F)F)c2)cc1 (stereo not given) | 6.44 | 8.02 | half-life [9]: 1 h; bioavailability [10]: 55%
21 | FC(F)Oc1ccc(C(Cc2ccncc2)c2ccc(Cl)cc2)cc1OC1CCCC1 (stereo not given) | 5.06 | 7.89 | –
